Test results from patent publication US20080318970A1, “Treatment of Infectious Diseases” (priority 2004, published 2008).
pEC50: −log10 of the molar value.

Legend:
HIV-1 strain HTLV-IIIB = test: Inhibition of HIV-1 replication in MT4 cells (MTT assay); format: cell-based; details: Human immunodeficiency virus 1, IIIB, 144 h; compound alone; MT4 cells, six days
Description: Each experiment was repeated in tripleduplicate. MIC values represent the mean values of two separate experiments.
The HIV-1 strain HTLV-IIIB were propagated in H9 cells at 37° C., 5% CO2 using RPMI 1640 with 10% heat-inactivated foetal calf serum (FCS) and antibiotics (growth medium). Culture supernatant was filtered ([…]), aliquotted, and stored at −80° C. until use. The HIV-1 strain was obtained from NIH AIDS Research and Reference Program.
(§1) Compounds were examined for possible antiviral activity against strain 111B of HIV-1 using MT4 cells as target cells. MT4 cells were incubated with virus (0.005 MOI) and growth medium containing the test dilutions of compound(s) for six days in parallel with virus-infected and uninfected control cultures without compound added. Expression of HIV in the cultures was indirectly quantified using the MTT assay as previously described. Compounds mediating less than 30% reduction of HIV expression were considered without biological activity. Compounds were tested in parallel for cytotoxic effect in uninfected MT4 cultures containing the test dilutions of compound as described above. Cultures for test of both antiviral activity and cytotoxic effect were set up in tripleduplicates, […] per culture in micro titre plates.
The 50% inhibitory concentration was determined by interpolation from the plots of percent inhibition versus concentration of compound.
EC50 is defined as the effective concentration that inhibits 50% of viral production, 50% of viral infectivity, or 50% of the virus-induced cytopathic effect.

[1] = Cytotoxic effect in uninfected MT4 cultures; format: cell-based; details: human, uninfected MT4 cells; compound alone; uninfected MT4
Description: as §1
CC50 is defined as the inhibitory concentration that reduces cellular growth or viability of uninfected cells by 50%.

pEC50 (HIV-1 strain HTLV-IIIB): 7.30
SMILES: Cc1cn([C@H]2C[C@H](N=[N+]=[N-])[C@@H](CO)O2)c(=O)[nH]c1=O [AZT, 3′-Azido-3′-deoxythymidine, reference compound]
CC50 at 6 days [1]: > 3 µM
